Data set [1] concerns the target T1, serotonin 1A receptors ([^3H]8-OH-DPAT binding, hippocampus membrane preparation) (Rattus norvegicus, UniProt P19327).
T1 construct: 146 μl of the hippocampus membrane preparation (80 μg/tube in terms of protein); from tissue; host or cells: rat hippocampus membrane preparation
T1 sequence (P19327 1-422): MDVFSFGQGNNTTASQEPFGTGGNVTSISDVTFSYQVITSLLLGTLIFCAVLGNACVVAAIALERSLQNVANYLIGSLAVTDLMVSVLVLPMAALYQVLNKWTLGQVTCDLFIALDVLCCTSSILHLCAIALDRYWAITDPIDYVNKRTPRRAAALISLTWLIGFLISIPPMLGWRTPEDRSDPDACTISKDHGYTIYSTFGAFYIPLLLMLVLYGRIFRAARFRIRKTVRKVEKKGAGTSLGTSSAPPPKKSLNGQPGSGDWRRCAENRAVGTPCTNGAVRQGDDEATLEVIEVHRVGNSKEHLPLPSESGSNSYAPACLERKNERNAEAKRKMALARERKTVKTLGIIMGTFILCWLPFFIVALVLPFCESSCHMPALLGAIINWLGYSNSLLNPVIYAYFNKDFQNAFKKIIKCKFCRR
As to the kind of experiment: [^3H]8-OH-DPAT binding test (Test Example 2). The conditions noted are these: [^3H]8-OH-DPAT 2 nM, test concentration not given. The method, then:
[^3H]8-OH-DPAT Binding Test
The test was carried out according to the method^2 of Hall M. D. et al. After about one week of pre-breeding, a male rat was decapitated and the brain was immediately removed. The hippocampus was dissected from the brain on ice, and 50 mM Tris-HCl (pH=7.4) was added to the hippocampus in an amount of 40 times the wet weight of the hippocampus, followed by homogenization (3 min, 1 stroke/min) in an ice bath by the use of a Teflon-glass homogenizer. Then, the homogenate was centrifuged (4° C.) at 40,000×g for 10 minutes. The resulting precipitate was dispersed in an ice-cooled buffer solution (50 mM Tris-HCl (pH=7.4)) by the use of Hiscotron™, followed by centrifugation (4° C.) at 40,000×g for 10 minutes. Moreover, the resulting precipitate was re-suspended and the washing procedure was repeated once. The precipitate thus obtained was dispersed in an ice-cooled buffer solution (50 mM Tris-HCl (pH=7.4)) by the use of Hiscotron™, and the resulting dispersion was incubated at 37° C. for 1 hour and then centrifuged (4° C.) at 40,000×g for 10 minutes. Furthermore, the resulting precipitate was re-suspended and the washing procedure was repeated once. The membrane preparation thus obtained was suspended in the same buffer solution as described above, and then subjected to cryopreservation at −80° C.
Measurement was carried out by using a liquid for reaction (total volume: 200 μl) obtained by adding 50 μl of [^3H]8-OH-DPAT (final concentration: 2 nM), 4 μl of a solution of a test drug and 146 μl of the hippocampus membrane preparation (80 μg/tube in terms of protein) to a buffer solution containing 50 mM Tris-HCl (pH=7.4) and 4 mM CaCl2. After the liquid for reaction was allowed to react at room temperature for 30 minutes, it was immediately filtered by suction at a low pressure through glass fiber filter. The glass fiber filter was washed twice with 250 μl of a buffer solution and then added to a glass vial containing 4 ml of ACS-II (Amersham), and the radioactivity bound to receptors and remaining on the filter was measured with a liquid scintillation counter. Non-specific binding of [^3H]8-OH-DPAT was defined as the amount of [^3H]8-OH-DPAT bound in the presence of 1 μM 8-OH-DPAT.
(§1) Rate of binding inhibition was calculated by the following equation:
Rate of binding inhibition (%)=100−100×{[amount of [^3H]8-OH-DPAT bound in the presence of test substance]−[amount of [^3H]8-OH-DPAT bound in the presence of 1 μM 8-OH-DPAT]/[amount of [^3H]8-OH-DPAT bound in the absence of test substance]−[amount of [^3H]8-OH-DPAT bound in the presence of 1 μM 8-OH-DPAT]}

The target of data set [2] is T2, [^3H]paroxetine binding (serotonin reuptake), cerebral cortex membrane preparation (Rattus norvegicus, UniProt P31652).
T2 construct: 790 μl of the cerebral cortex membrane preparation (150 μg/tube in terms of protein); from tissue; host or cells: rat cerebral cortex membrane preparation
T2 sequence (P31652 whole entry): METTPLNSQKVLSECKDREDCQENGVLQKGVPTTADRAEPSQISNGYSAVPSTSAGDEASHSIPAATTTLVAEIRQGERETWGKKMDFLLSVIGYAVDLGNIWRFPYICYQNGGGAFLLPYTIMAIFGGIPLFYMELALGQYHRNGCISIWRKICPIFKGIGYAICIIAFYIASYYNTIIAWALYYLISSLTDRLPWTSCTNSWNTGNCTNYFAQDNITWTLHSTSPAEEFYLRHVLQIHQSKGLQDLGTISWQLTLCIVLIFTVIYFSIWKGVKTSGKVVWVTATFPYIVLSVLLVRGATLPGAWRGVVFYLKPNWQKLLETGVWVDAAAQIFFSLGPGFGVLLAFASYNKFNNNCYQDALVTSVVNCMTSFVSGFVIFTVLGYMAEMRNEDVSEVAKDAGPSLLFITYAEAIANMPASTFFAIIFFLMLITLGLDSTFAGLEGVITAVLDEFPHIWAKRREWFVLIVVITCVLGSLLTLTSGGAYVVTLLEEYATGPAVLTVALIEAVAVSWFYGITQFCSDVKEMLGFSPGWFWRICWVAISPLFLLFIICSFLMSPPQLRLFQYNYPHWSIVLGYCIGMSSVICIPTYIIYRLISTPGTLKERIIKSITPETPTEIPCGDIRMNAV
The experiment in a line: Screening test using [^3H]paroxetine binding (Test Example 1). The conditions noted are these: [^3H]paroxetine 0.15 nM, test concentration not given. The method, then: Screening Test Using [^3H]Paroxetine Binding
The membrane preparation was prepared according to the method^1a) of D'amato et al. In detail, after a male rat was decapitated, the whole brain was immediately removed and the cerebral cortex was dissected therefrom under ice-cooling. A buffer solution (50 mM Tris-HCl (pH=7.4), 120 mM NaCl, 5 mM KCl) was added to the cerebral cortex in an amount of 25 times the wet weight of the cerebral cortex, followed by homogenization in an ice bath by the use of a Teflon-glass homogenizer. The homogenate was centrifuged at 4° C. and 45,000×g for 10 minutes, and the resulting precipitate was dispersed in an ice-cooled buffer solution (50 mM Tris-HCl (pH=7.4), 120 mM NaCl, 5 mM KCl) by the use of Hiscotron™, followed by centrifugation at 4° C. and 45,000×g for 10 minutes. The resulting precipitate was re-suspended and the washing procedure was repeated. The membrane preparation thus obtained was suspended in the same buffer solution as described above, and then subjected to cryopreservation at −80° C.
[^3H]paroxetine binding was measured according to the method^1b) of Habert E et al. In detail, 200 μl of a dilution (final concentration: 0.15 nM) of [^3H]paroxetine with 50 mM Tris-HCl (pH=7.4) buffer containing 120 mM NaCl and 5 mM KCl, 790 μl of the cerebral cortex membrane preparation (150 μg/tube in terms of protein), 10 μl of a solution of a test drug in dimethyl sulfoxide and 1 ml of the above-mentioned buffer solution were mixed to prepare a liquid having a total volume of 2 ml. After this liquid was allowed to react at room temperature for 60 minutes, it was immediately filtered by suction at a low pressure through glass fiber filter. The glass fiber filter was washed 4 times with 4 ml of the same buffer solution as above and then transferred to a glass vial containing 4 ml of ACS-II (Amersham), and the radioactivity remaining on the filter was measured with a liquid scintillation counter.
Non-specific binding of [^3H]paroxetine was defined as the amount of [^3H]paroxetine bound in the presence of 100 μM 5-HT.
as §1
Rate of binding inhibition (%)=100−100×{[amount of [^3H]paroxetine bound in the presence of test substance]−[amount of [^3H]paroxetine bound in the presence of 100 μM 5-HT]/[amount of [^3H]paroxetine bound in the absence of test substance]−[amount of [^3H]paroxetine bound in the presence of 100 μM 5-HT]}

The results in this text go back to patent publication US20050065140A1, “Serotonine reuptake inhibitor” (priority 2001, published 2005).

Each structure is given as a SMILES string.

For the compound `CCN[C@H]1CC[C@H](CCN2CCC(Cc3cc(OC(C)C)ccc3Br)CC2)CC1.Cl.Cl`, the melting point – broadly, the temperature, or range, at which the solid turns liquid – was found to be 290 °C.
Same read-out and setting: next, `CCOc1ccc(Br)c(CC2CCN(CC3CCc4ccccc4N3)CC2)c1.Cl.Cl` (stereo not drawn): 228 °C.
Turning to `CCN[C@H]1CC[C@@H](CCN2CCC(Cc3cc(OC(C)C)ccc3Br)CC2)CC1.Cl.Cl` [Example 41, cis-N-(4-(2-(4-(2-bromo-5-isopropoxybenzyl)-piperidin-1-yl)ethyl)cyclohexyl)-N-ethylamine Dihydrochloride], the melting point came out at 247 °C. Moreover, the “Rate of inhibition of [^3H]8-OH-DPAT binding (%)” value in data set [1] turned out to be 86%. Besides, the “Rate of inhibition of [^3H]paroxetine binding (%)” value in data set [2] is recorded as 78%.
`CO[C@H]1CC[C@@H](CCCN2CCC(Cc3cc(OC(C)C)ccc3Br)CC2)CC1.Cl` displayed a melting point of 134 °C.
Compound `CCN(CC)[C@H]1CC[C@H](CCN2CCC(Cc3cc(OC(C)C)ccc3Br)CC2)CC1.Cl.Cl` displayed a melting point of 253 °C.
Turning to `CCN(C(C)=O)[C@H]1CC[C@H](CCN2CCC(Cc3cc(OC(C)C)ccc3Br)CC2)CC1.Cl` [Example 52, trans-N-(4-(2-(4-(2-bromo-5-isopropoxy-benzyl)piperidin-1-yl)ethyl)cyclohexyl)-N-ethylacetamide Hydrochloride], the “Rate of inhibition of [^3H]8-OH-DPAT binding (%)” value in data set [1] came to 60%. Moreover, in data set [2], the “Rate of inhibition of [^3H]paroxetine binding (%)” value is 90%.
In turn, `CCN(CC)[C@H]1CC[C@H](CCN2CCC(Cc3cc(OC)ccc3Br)CC2)CC1.Cl.Cl` showed a melting point of 242 °C.
The same measure, in the same setting: in the case of `COc1ccc(Br)c(CC2CCN(CCC[C@H]3CC[C@@H](N)CC3)CC2)c1.Cl.Cl` it was 238 °C.
For `COc1ccc(Br)c(CC2CCN(CCC3(CCO)CCCCC3)CC2)c1.Cl` [Example 60, 2-(1-(2-(4-(2-Bromo-5-methoxybenzyl)-piperidin-1-yl)ethyl)cyclohexyl)ethanol Hydrochloride], in data set [1], the “Rate of inhibition of [^3H]8-OH-DPAT binding (%)” value is listed as 98%. In addition, the “Rate of inhibition of [^3H]paroxetine binding (%)” value in data set [2] came out at 91%.
For `COc1ccc(N2CC(CN3CCC(Cc4cc(OC)ccc4Br)CC3)OC2=O)cc1.Cl` (stereo not drawn) [Example 72, 5-(4-(2-Bromo-5-methoxybenzyl)piperidin-1-yl)methyl-3-(4-methoxyphenyl)oxazolidin-2-one hydrochloride], the “Rate of inhibition of [^3H]8-OH-DPAT binding (%)” value in data set [1] stood at 97%. Further, the “Rate of inhibition of [^3H]paroxetine binding (%)” value in data set [2] was 99%.
`COc1ccc(Br)c(CC2CCN(CC[C@H]3CC[C@@H](CO)CC3)CC2)c1.Cl` gave a melting point of 209 °C.
Compound `CCN[C@H]1CC[C@@H](CCCN2CCC(Cc3cc(OC)ccc3Br)CC2)CC1.Cl.Cl` had a melting point of 234 °C.
On the same count and under the same terms, in the case of `COCC(=O)N[C@H]1CC[C@H](CCN2CCC(Cc3cc(OC)ccc3Br)CC2)CC1.Cl` it was 132 °C.
Compound `CCN(CC(F)(F)F)[C@H]1CC[C@H](CCN2CCC(Cc3cc(OC)ccc3Br)CC2)CC1.Cl.Cl` registered a melting point of 209 °C.
Same read-out and setting: in the case of `CCN(CCO)[C@H]1CC[C@H](CCN2CCC(Cc3cc(OC)ccc3Br)CC2)CC1.Cl.Cl` it was 259 °C.
For `COc1ccc(Br)c(CC2CCN(CCC3CCNCC3)CC2)c1.Cl.Cl` [Example 1, 4-(2-Bromo-5-methoxybenzyl)-1-(2-(4-piperidinyl)ethyl)piperidine Dihydrochloride], the “Rate of inhibition of [^3H]8-OH-DPAT binding (%)” value in data set [1] is recorded as 47%. Also, the “Rate of inhibition of [^3H]paroxetine binding (%)” value in data set [2] worked out at 81%.
In turn, `COc1ccc(Br)c(CC2CCN(CCC3(CCO)CCCC3)CC2)c1.Cl` showed a melting point of 184 °C.
On to `CCNC(=O)N1CCC(CCN2CCC(Cc3cc(OC)ccc3Br)CC2)CC1.Cl` [Example 32], for which the “Rate of inhibition of [^3H]8-OH-DPAT binding (%)” value in data set [1] came to 73%. Moreover, the “Rate of inhibition of [^3H]paroxetine binding (%)” value in data set [2] stood at 97%.
Regarding `COc1ccc(Br)c(CC2CCN(CC[C@H]3CC[C@@H](CCO)CC3)CC2)c1.Cl` [Example 63], the melting point amounted to 172 °C.
`Cl.Cl.Fc1ccc(Br)c(CC2CCN(CC3CCc4ccccc4N3)CC2)c1` (stereo not drawn) had a melting point of 245 °C.
